Laboratory results: ChEMBL document CHEMBL1155572, “Sesquiterpene quinols/quinones from the Micronesian sponge Petrosaspongia metachromia” (J Nat Prod, 2000)
Values after ≈ are worked out from the molar mass of the structure shown.

Assay: Toxicity against brine shrimp
Assay type: organism-based
Details: artemia, in vivo

**Q.** For COC(=O)c1cc(O)c(O)c2c1[C@]1(C)CC[C@H]3C(C)(C)CCC[C@]3(C)[C@H]1C2 [PELOROL], which LC50 is on record?
**A.** 5 µg/mL (≈ 13.4 µM)
